Data: patent US20210343368A1, “Method for Engineering Synthetic Cis-Regulatory DNA” (Max-Delbrück-Centrum für Molekulare Medizin in der …, priority 2018, published 2021)

What was measured:
Type in all cases: cell-based, human
MES-hGICs-MGT #1low [1] = assay: FACS of MGT #1 response to TNFα; settings: equal basal MGT #1 levels by FACS sorting
Experimental: (§1) FACS analysis: Analysis was performed with FlowJo_V10.
(§2) FACS sorting: Transduced hGICs were harvested into single cell suspensions and resuspended into cold RHB-A complete and filtered into FACS tubes. Sorting was conducted using BD FACSAria III or Fusion. The appropriate laser-filter combinations were chosen depending on the fluorophores being sorted for. Typically, to remove dead cells, events were first gated on the basis of shape and granularity (FSC-A vs. SSC-A) and doublets were excluded (FSC-A vs. FSC-H). Positive gates were established on PGK-driven and constitutively expressed H2B-CFP as sorting reporter, to sort for populations with low to medium intensity of sLCR-dependent fluorophore expression.
(§3) Next, near-isogenic and characterized MES-hGICs and PN-hGICs were transduced with MGT #1 lentiviral particles. PN-hGICs bear a combination of IDH1 and TP53 point mutations, which is only found in PN GBM, whereas MES-hGICs have triple knockdown of TP53, PTEN and NF1, featuring a MES GBM background. […] As TNFa is considered a prominent MES-GBM signaling pathway, and can induce a PN-to-MES transition^20, we next tested whether MGT #1 is faithfully reproducing a MES GBM signaling by exposing either MES-hGICs-MGT #1^low and PN-hGICs-MGT #1^low W to TNFα. […] Reassuringly, TNFα induced a fluorescence increase in both cell types as compared to each parental control.

PN-hGICs-MGT #1low = assay: FACS of MGT #1 response to TNFα; settings: equal basal MGT #1 levels by FACS sorting
Experimental: as §1, §2, §3

[2] = system: MES-hGICs-MGT #1low and PN-hGICs-MGT #1low cells; assay: Phenotypic screening of sLCR response to selected factors, FACS; settings: 48 hours after stimulation
Experimental: NBE-propagated hGICs were stimulated with selected factors (cytokines, growth factors, compounds) and FACS analyzed 48 hours after stimulation (FIG. 13b). […] (FIG. 13b-c and 17). […] Indeed, TNFα was previously reported as a prominent MES-GBM signaling pathway and inducer of a PN-to-MES transition.

A549-MGT #1low cells = assay: Cytokine screening, microplate reader MGT #1 fluorescence; settings: cytokine alone
Experimental: Phenotypic screening: Tumor cells were propagated as described above until the screening. Then we seeded 15′000/50 μl/well in 384 well plates (Corning), in Gibco FluoroBrite DMEM medium supplemented with the appropriate growth factors. Cells were dispensed as 50 μl suspension into each well using the SPARK20M Injector system (50 μl injection volume; 100 μl/s injection speed). For non-adherent cells (e.g. GICs), cells were further centrifuge at 1500 rpm for 1 h30 min at 37° C. Bottom reading fluorescence was scanned using a SPARM 20M TECAN plate reader at 37° C. in a 5% CO2-95% air (3% for GICs) in a humidified cassette, with the following settings for mVenus: Monochromator, Ex 505 nm±20 nm, Em 535 nm±7.5 nm, manual gain:198, flashes: 35, Integration time:40 μs. In independent replicas, cell viability was measured with 0.02% AlamarBlue solution in FluoroBrite medium with the following settings: Fluorescence Top reading. Monochromator, Ex 565 nm±10 nm, Em 592 nm±10 nm, manual gain: 88, flashes: 30, Integration time:40 μs.
DMSO-soluble compounds such as GSK126, were robotically aliquoted using a D300e, whereas cytokines were robotically aliquoted to each well using an Andrew pipetting robot (AndrewAlliance), using the following concentrations:
To exploit Ezh2 inhibition and MGT #1 as a framework to clarify the signaling basis of EMT in NSCLC cells, we next performed a cytokine screening in GSK126- and vehicle-treated A549-MGT #1^low cells.

MES-hGICs-MGT #1low [3] = assay: Medium-throughput cytokine screening, bottom reading fluorescence; settings: up to 48 hours from stimulation
Experimental: Phenotypic screening: Tumor cells were propagated as described above until the screening. Then we seeded 15′000/50 μl/well in 384 well plates (Corning), in Gibco FluoroBrite DMEM medium supplemented with the appropriate growth factors. Cells were dispensed as 50 μl suspension into each well using the SPARK20M Injector system (50 μl injection volume; 100 μl/s injection speed). For non-adherent cells (e.g. GICs), cells were further centrifuge at 1500 rpm for 1 h30 min at 37° C. Bottom reading fluorescence was scanned using a SPARM 20M TECAN plate reader at 37° C. in a 5% CO2-95% air (3% for GICs) in a humidified cassette, with the following settings for mVenus: Monochromator, Ex 505 nm±20 nm, Em 535 nm±7.5 nm, manual gain:198, flashes: 35, Integration time:40 μs. In independent replicas, cell viability was measured with 0.02% AlamarBlue solution in FluoroBrite medium with the following settings: Fluorescence Top reading. Monochromator, Ex 565 nm±10 nm, Em 592 nm±10 nm, manual gain: 88, flashes: 30, Integration time:40 μs. […]
Human GICs and GSCs are consistently propagated under “NBE” conditions, which stands for serum-free Neurobasal media supplemented with basic FGF and EGF^25. […] Next, GICs were stimulated with individual cytokines in biological and technical replica followed by continuous fluorescence bottom reading in a pre-defined time course experiment. […]

[4] = system: MES-hGICs-MGT #1low and PN-hGICs-MGT #1low cells; assay: FACS quantification of Mesenchymal transdifferentiation after Ionizing Radiation and TNFα; settings: TNFα combined with IR 10 Gy
Excerpt: Irradiation of hGICs: Irradiation was delivered using the XenX irradiator platform (XStrahl Life Sciences), equipped with a 225 kV X-ray tube for targeted irradiation. hGICs cultured in either 6-well plates or 96-well plates were placed in the focal plane of the beamline and exposed to irradiation for a specific time, depending on the target dosage, as calculated with an internal calculation software.
Mesenchymal Differentiation in GBM was originally described as a dominant event at recurrence after radiotherapy^19 and later linked to acquired radio-resistance via TNF-driven NFKB activation^20. Repeatedly, correlative evidences support a link between inflammatory signaling, EMT and radio-resistance^34. To functionally test whether irradiation may induce Mesenchymal transdifferentiation in cell autonomous manner, MES-hGICs-MGT #1^low and PN-hGICs-MGT #1^low cells were exposed to Ionizing Radiation (IR), alone or in combination with TNFα. […] The residual DNA damage marker […] phosphorylation twenty-four hours post irradiation confirmed the occurrence of both double-strand breaks and repair. However, only a minor proportion of GICs turned to a MGT #1^high state from either genetic background (FIG. 2g-h). […] The data also support the speculation that NFKB activation is augmented as a result of non-canonical signaling caused by genotoxic stress^36.

## TNFα
MES-hGICs-MGT #1low [1]
  MGT #1 expression level after TNFα: turned into MES-hGICs-MGT #1^high
PN-hGICs-MGT #1low
  MGT #1 expression level after TNFα: only reached PN-hGICs-MGT #1^med levels
[2]
  sLCR (MGT #1-2) response normalized to naive hGICs: MES-GBM regulators
A549-MGT #1low cells
  MGT #1 expression, fluorescence output: leading signaling towards MGT #1 expression
MES-hGICs-MGT #1low [3]
  MGT #1 / MGT #2 fluorescence normalized to naive GICs: turned into MES-hGICs-MGT #1^high
[4]
  Mesenchymal differentiation (MGT #1high): augmented Mesenchymal differentiation
